Results as given in patent US20090062222A1, “Methods for Sensitizing Cancer Cells to Inhibitors” (TRUSTEES OF BOSTON UNIVERSITY, priority 2005, published 2009).
Read-outs that look alike come from different tables or passages of the source. Where a SMILES comes first, the peptide text is derived from it. The star is where a group is joined. Cbz = O=C(OCc1ccccc1)*

Assays:
[1] = system: PC-3 cells; test: Clonogenic survival of PC-3 cells
[2] = system: HSP72; test: HSP72 induction in PC-3 cells (heat shock, proteasome or HSP90 inhibitors), immunoblotting; assay type: cell-based, human; details: for inhibition at 2 µM / inhibition at 10 µM: Homo sapiens; for inhibition at 2 µM: read-out: HSP72 Inhibition, by NZ28 (2 μM); for Inhibition of Hsp72 induction by 17-AAG: PC-3 cells
[3] = system: PC-3 cells; test: Apoptosis by PARP cleavage in PC-3 cells
[4] = system: HSP72 induction (CHO cells); test: Inhibition of Hsp72 induction by heat shock in CHO cells (immunoblotting); assay type: cell-based; details: for Inhibition of Hsp72 induction, second step of the screening / IC50: CHO cells; for Inhibition of Hsp72 induction, second step of the screening: 45° C. 10 min, then 6 hours at 37° C.; for Inhibition of Hsp72 induction by heat shock, NCI similarity set: concentrations between 2 and 10 μM
[5] = system: protein synthesis; details: cited from earlier work
[6] = system: CHO cells; test: Toxicity in CHO cells; assay type: cell-based; details: for IC50: Cricetulus griseus, read-out: IC50 toxicity
Source text: Three of these compounds, including emetine, tubulosine, and NZ28, have significant structural similarity.

[7] = system: HSP72; test: HSP72 induction in MM.1S cells (heat shock, proteasome or HSP90 inhibitors), immunoblotting; assay type: cell-based, human; details: for HSP72 induction by the drug / Inhibition of HSP72 induction by proteasome inhibitors: MM.1S; for HSP72 induction by the drug: 16 hours; for inhibition at 2 µM / inhibition at 10 µM: Homo sapiens, MM1.S; for inhibition at 2 µM: MM.1s, read-out: HSP72 Inhibition, by NZ28 (2 μM); for Inhibition of Hsp72 induction in response to Hsp90 inhibitors radicicol and 17-AAG: MM.1S blocked stronger than PC-3; for Inhibition of HSP72 induction by proteasome inhibitors: VELCADE or MG132 for 16 hours; for inhibition at 10 µM: read-out: HSP72 inhibition, by Emunin (10 μM), MM.1s
[8] = system: luciferase under the tet-off promoter; test: General protein synthesis: luciferase induction under tet-off promoter in CHO cells; assay type: cell-based; details: 24 hours, NZ28 1 and 2 μM
[9] = system: HSP72; test: HSP72 induction in MEF cells (proteasome or HSP90 inhibitors), immunoblotting; details: Mus musculus, read-out: HSP72 Inhibition, by NZ28 (2 μM)
[10] = system: MM.1S cells; test: Apoptosis by PARP cleavage in MM.1S cells
[11] = system: HSP27; test: HSP27 induction by proteasome and HSP90 inhibitors in MM.1S cells, immunoblotting; details: VELCADE or Radicicol, emunin 10 μM, NZ28 2 μM added 5 hours before
[12] = system: CMV-driven GFP; test: General protein synthesis: CMV-driven GFP expression in CHO cells; assay type: cell-based; details: added 16 hours post-infection, 24 hours, NZ28 2 μM, emunin 10 μM
[13] = system: HSF1-activated Hsp70B promoter; test: HSF1 activity: luciferase reporter under Hsp70B promoter in PC-3 cells after heat shock; details: added 5 hours before 45° C. 10 min, overnight recovery
[14] = system: HCT-116 cells; test: Apoptosis by PARP cleavage in HCT-116 cells; assay type: cell-based, human
Source text: Sensitization to proteasome and Hsp90 inhibitors was seen when we tested additional cancer cells lines. In fact, depletion of HSF1 by treatment with siRNA in either a distinct prostate carcinoma line DU-145 or colon carcinoma HCT-116 cells led to suppression of the heat shock response and increased sensitivity to MG132 and 17-AAG (FIG. 2). […] Depletion of HSF1 in these cells led to a dramatic reduction of the constitutive Hsp72 levels (FIG. 2B) and very strong sensitization to the drugs (FIGS. 2C, 2D, and 2E).

[15] = Cricetulus griseus, heat shock, read-out: IC50 HSP72 Induction Inhibition (CHO cells)
[16] = Cricetulus griseus, heat shock (FIGS. 3A and 3B), read-out: IC50 for inhibition of Hsps induction
[17] = 4 min, Heat Shock 45° C., 4 min
[18] = HSP90 Inhibitor Radicicol 0.8 μM
[19] = Proteasome Inhibitor VELCADE 5 nM

C=CCNC1=C2C[C@@H](C)C[C@H](OC)[C@H](O)[C@@H](C)/C=C(\C)[C@H](OC(N)=O)[C@@H](OC)/C=C\C=C(/C)C(=O)NC(=CC1=O)C2=O [17-AAG, 17-(allylamino)-17-demethoxygeldanamycin, reference compound]
Sensitization by si-HSF1, colony forming ability ([1]; wide range of concentrations): about 5 fold
Hsp72 induction by the drug [2]: strongly induced
Increase in PARP cleavage on depletion of HSF1 ([3]; PC-3, 0.25 μM, 24 hours): 100%

CCC1CN2CCc3cc(OC)c(OC)cc3C2CC1CC1NCCc2cc(OC)c(OC)cc21 (stereo not drawn) [Emetine, reference compound]
Inhibition of Hsp72 induction, second step of the screening ([4]; 2 μM): inhibit Hsp72 induction
IC50 [4, 15]: < 0.25 µM
Concentration at which protein synthesis is inhibited [5]: above 10 μM
Toxicity in an apoptotic assay [6]: showed toxicity
IC50 ([6]; CHO cells): < 250 nM

CCC1CN2CCc3cc(OC)c(OC)cc3C2CC1CC1NCCc2cc(O)c(OC)cc21 (stereo not drawn) [Isocephaeline, Emetan-6′-ol, 7′,10,11-trimethoxy-,(1′beta)-]
IC50 [4, 15]: < 0.5 µM
Inhibition of Hsp72 induction by heat shock, NCI similarity set [4]: inhibit Hsp72 induction
IC50 ([6]; CHO): < 500 nM

CC(C)C[C@@H](C=O)NC(=O)[C@H](CC(C)C)NC(=O)[C@H](CC(C)C)NC(=O)OCc1ccccc1 [MG132, N-carbobenzoxyl-Leu-Leu-leucinal, reference compound] (Cbz-Leu-Leu-Leu-aldehyde)
Sensitivity of si-HSF1 cells, colony forming ability ([1]; between 0.25 μM and 2 μM): very strong enhancement of sensitivity
HSP72 induction by the drug [7]: Strong induction
Hsp72 induction by the drug ([2]; PC-3 RetroQ cells, 24 hours): strongly induced
PARP cleavage, MG132 alone ([3]; PC-3, 2 days): approximately 10%

CCC1=C(CC2NCCc3ccccc32)CC2c3cc(OC)c(OC)cc3CCN2C1 (stereo not drawn) [NZ28]
Inhibition of luciferase expression (tet-off promoter) [8]: Neither NZ28 (FIG. 3C) nor emunin (not shown) inhibited luciferase expression
inhibition at 2 µM [9]: 100%
Inhibition of Hsp72 induction, second step of the screening ([4]; 2 μM): inhibit Hsp72 induction
inhibition at 2 µM ([4]; Cricetulus griseus, 10 min, CHO, Heat Shock 45° C., 10 min, 2 μM, read-out: HSP72 Inhibition, by NZ28 (2 μM)): 99%
IC50 [4, 16]: 1 µM
IC50 [4, 15]: 1 µM
Sensitization to radicicol (PARP cleavage) ([10]; 0.1 μM radicicol 48 h, 2 μM NZ28): similarly sensitized
Cell growth inhibition ([6]; CHO cells): slight growth inhibition
Toxicity ([6]; CHO cells): did not show toxicity
IC50 ([6]; CHO cells): 5000 nM
inhibition at 2 µM [7, 17]: 100%
inhibition at 2 µM [7, 18]: 90%
inhibition at 2 µM [7, 19]: 100%
Inhibition of Hsp72 induction in response to Hsp90 inhibitors radicicol and 17-AAG [7]: inhibited induction of Hsp72
Inhibition of HSP72 induction by proteasome inhibitors [7]: almost completely inhibited HSP72 induction
inhibition at 2 µM ([2]; PC-3, 20 min, PC-3, Heat Shock 45° C., 20 min): 85%
inhibition at 2 µM ([2]; PC-3, PC-3, HSP90 Inhibitor 17-AAG 2 μM): 70%
inhibition at 2 µM ([2]; PC-3, PC-3, Proteasome Inhibitor MG132 1 μM): 90%
Inhibition of Hsp72 induction by 17-AAG [2]: significant but transient
Inhibition of Hsp27 induction [11]: inhibit HSP72 and HSP27 induction
Inhibition of GFP expression (CMV promoter) [12]: No significant inhibition of GFP expression
Inhibition of luciferase induction by heat shock (Hsp70B promoter reporter) [13]: about 40%

COc1cc2c(cc1OC)CN1CCc3cc(OC)c(OC)cc3C1C2 (stereo not drawn) [NZ50]
IC50 [4, 15]: > 10 µM
IC50 ([6]; CHO cells): < 2000 nM

COc1ccc(CC2NCCc3cc(OC)c(OC)cc32)cc1OC (stereo not drawn) [NZ54]
IC50 [4, 15]: > 10 µM
IC50 ([6]; CHO cells): < 2000 nM

COc1cc2c(cc1OC)C(CC1=CCN3CCc4ccccc4C3C1)NCC2 (stereo not drawn) [NZ60]
IC50 [4, 15]: > 10 µM
IC50 ([6]; CHO cells): < 2000 nM

CCC1=C(C)CC2c3cc(OC)c(OC)cc3CCN2C1 (stereo not drawn) [NZ61]
IC50 [4, 15]: > 10 µM
IC50 ([6]; CHO cells): < 2000 nM

COc1cc2c(cc1OC)C(CC1=C(c3ccccc3)CN3CCc4cc(OC)c(OC)cc4C3C1)NCC2 (stereo not drawn) [NZ62]
IC50 [4, 15]: > 10 µM
IC50 ([6]; CHO cells): < 2000 nM

CCC1CN2CCc3cc(OC)c(OC)cc3C2CC1C1c2cc(OC)c(OC)cc2CCN1C(=O)CNC(=O)OC(C)(C)C (stereo not drawn) [NZ71]
inhibition at 10 µM ([4]; Cricetulus griseus, 10 min, CHO, Heat Shock 45° C., 10 min, 10 μM, read-out: HSP72 inhibition, by Emunin (10 μM)): 95%
IC50 [4, 16]: 5 µM
IC50 [4, 15]: 5 µM
Inhibition of Hsp72 induction by heat shock, NCI similarity set [4]: inhibit Hsp72 induction
PARP cleavage, emunin alone [10]: did not cause PARP cleavage
PARP cleavage, emunin and VELCADE together ([10]; VELCADE 5 nM + 10 μM emunin, overnight): 70%
PARP cleavage, radicicol and emunin ([10]; radicicol 0.5 μM + 10 μM emunin, 24 hours): about 50%
Cell growth inhibition ([6]; CHO cells): very little cell growth inhibition
Toxicity ([6]; CHO cells): non-toxic
IC50 ([6]; CHO cells): > 10000 nM
Colony forming ability, emunin alone [1]: did not affect the colony forming ability
inhibition at 10 µM [7, 17]: 90%
inhibition at 10 µM [7, 18]: 90%
inhibition at 10 µM [7, 19]: 95%
Inhibition of Hsp72 induction in response to Hsp90 inhibitors radicicol and 17-AAG [7]: inhibited induction of Hsp72
Inhibition of HSP72 induction by proteasome inhibitors [7]: almost completely inhibited HSP72 induction
inhibition at 10 µM ([2]; PC-3, 20 min, read-out: HSP72 inhibition, by Emunin (10 μM), PC-3, Heat Shock 45° C., 20 min): 80%
inhibition at 10 µM ([2]; PC-3, read-out: HSP72 inhibition, by Emunin (10 μM), PC-3, HSP90 Inhibitor 17-AAG 2 μM): 60%
inhibition at 10 µM ([2]; PC-3, read-out: HSP72 inhibition, by Emunin (10 μM), PC-3, Proteasome Inhibitor MG132 1 μM): 80%
Inhibition of Hsp72 induction by 17-AAG [2]: only weak inhibition
Inhibition of Hsp27 induction [11]: inhibit HSP72 and HSP27 induction
Inhibition of GFP expression (CMV promoter) [12]: No significant inhibition of GFP expression
Inhibition of luciferase induction by heat shock (Hsp70B promoter reporter) [13]: about 40%
Sensitization of si-HSF1 PC-3 cells to MG-132 ([3]; HSF1-depleted PC-3 cells): no apparent sensitization
PARP cleavage, MG132 and emunin ([3]; PC-3, 2 days): 50%
Sensitization to radicicol ([3]; PC-3 cells): little sensitization

CCC1CN2CCc3cc(OC)c(OC)cc3C2CC1CC1NCCc2c1[nH]c1ccc(OC)cc21 (stereo not drawn) [NZ72]
IC50 [4, 15]: 2 µM
Inhibition of Hsp72 induction by heat shock, NCI similarity set [4]: inhibit Hsp72 induction
IC50 ([6]; CHO cells): > 2000 nM

CC(C)C[C@H](NC(=O)[C@H](Cc1ccccc1)NC(=O)c1cnccn1)B(O)O [VELCADE®, bortezomib, reference compound]
PARP cleavage, VELCADE alone ([10]; 5 nM, overnight): 30%
HSP72 induction by the drug [7]: Strong induction

CCC1=C(CC2NCCc3cc(OC)c(OC)cc32)CC2c3cc(OC)c(OC)cc3CCN2C1 (stereo not drawn) [dehydroemetine, reference compound]
IC50 [4, 15]: < 0.5 µM
Inhibition of Hsp72 induction by heat shock, NCI similarity set [4]: inhibit Hsp72 induction
IC50 ([6]; CHO cells): < 500 nM

COc1cccc2c1C(=O)c1c(O)c3c(c(O)c1C2=O)C[C@@](O)(C(=O)CO)C[C@@H]3O[C@H]1C[C@H](N)[C@H](O)[C@H](C)O1 [doxorubicin, reference compound]
Sensitization to apoptosis by si-HSF1 [3]: little or no sensitization

O=c1c(O)c(-c2ccc(O)c(O)c2)oc2cc(O)cc(O)c12 [quercetin, reference compound]
IC50 [4, 16]: ~50 µM

C[C@@H]1C[C@H]2O[C@@H]2/C=C\C=C\C(=O)Cc2c(Cl)c(O)cc(O)c2C(=O)O1 [radicicol]
PARP cleavage, radicicol alone ([10]; 0.5 μM, 24 hours): 10%
Sensitivity of control cells ([14]; HCT-116 control cells): resistant
Sensitivity of si-HSF1 cells ([14]; HCT-116 si-HSF1 cells): quite sensitive

CCC1CN2CCc3cc(OC)c(OC)cc3C2CC1CC1NCCc2c1[nH]c1ccc(O)cc21 (stereo not drawn) [tubulosine]
Inhibition of Hsp72 induction, second step of the screening ([4]; 2 μM): inhibit Hsp72 induction
IC50 [4, 15]: 0.5 µM
Toxicity in an apoptotic assay [6]: showed toxicity
IC50 ([6]; CHO): 250 nM
